Measured values reported in ChEMBL document CHEMBL3351459, “Present status of quinoxaline motifs: excellent pathfinders in therapeutic medicine” (Eur J Med Chem, 2014).
≈ marks a conversion by molar mass, not a printed value.

Experiments:
[1] = tested on: Mycobacterium tuberculosis; experiment: Antimycobacterial activity against isoniazid-resistant Mycobacterium tuberculosis; format: functional
[2] = tested on: Mycobacterium tuberculosis; experiment: Antimycobacterial activity against rifampicin-resistant Mycobacterium tuberculosis; format: functional

Question: With `CC(=O)c1c(C)[n+]([O-])c2ccc(Cl)cc2[n+]1[O-]` as the molecule, how does the MIC [1] read?
Answer: Its MIC is 1.56 µg/mL (≈ 6.17 µM).

Question: And the MIC [2]?
Answer: Its MIC is ≤ 0.39 µg/mL.
